Where a name gives a salt, the structure may show the parent alone.
Target: T1, human-derived GPR40 (Homo sapiens, UniProt O14842)
T1 construct: expressed in transfected cells
Experiment: Receptor function modulating action (agonist action) on human-derived GPR40: variation in intracellular calcium concentration in CHO cells (FLIPR or Cell Lux)
Format: cell-based
Conditions: CHO cell line stably expressing human-derived GPR40
Description: A CHO cell line stably expressing human-derived GPR40 was used for determining the agonist activity. […] One day before the assay, the cells cultured to near confluence were rinsed with PBS (Invitrogen), detached using 0.5 mM EDTA (Wako Pure Chemical Industries, Ltd.) and recovered by centrifugation. The obtained cells were counted and diluted to 3×10^5 cells per 1 mL medium. The cells were dispensed to a 96-well black clear bottom plate (Coster) by 100 μL per well and cultured overnight in a CO2 incubator. To the CHO cells prepared in this manner were added various test compounds, and variation in the intracellular calcium concentration was measured using FLIPR (Molecular Device) or Cell Lux (PerkinElmer). For measurement of variation in the intracellular calcium concentration using FLIPR or Cell Lux, the following pretreatment was performed. […] Then, a fluorescence dye solution was dispensed by 100 μL per well, and the cells were cultured in a CO2 incubator for 1 hr to allow intake of the fluorescence dye. During this time, the test compound was diluted to a given concentration with the assay buffer, and dispensed to a polypropylene 96-well plate (sample plate) by 100 μL. The cell plate and the sample plate were simultaneously set in the FLIPR or Cell Lux. After the foregoing pretreatment, variation in the intracellular calcium concentration after addition of 50 μL of various test compounds was measured using FLIPR or Cell Lux.

[1] = each compound at 1 μM, relative to activity of 10 μM γ-linolenic acid = 100%, FLIPR for Examples 2, 6, 8, 10, 11, 13, Cell Lux for Examples 19-34

T1 sequence (O14842 whole entry): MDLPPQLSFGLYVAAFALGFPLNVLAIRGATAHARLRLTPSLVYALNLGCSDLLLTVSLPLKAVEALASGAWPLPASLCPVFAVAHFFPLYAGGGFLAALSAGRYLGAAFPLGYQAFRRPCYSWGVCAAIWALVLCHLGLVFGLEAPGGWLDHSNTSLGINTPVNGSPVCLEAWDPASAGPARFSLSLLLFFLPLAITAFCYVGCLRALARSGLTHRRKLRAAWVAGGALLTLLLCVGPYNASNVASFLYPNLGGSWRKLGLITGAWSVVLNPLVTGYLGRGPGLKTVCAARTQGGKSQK

activation at 1 µM [1] [%] | SMILES | also measured
120 | CCS(=O)(=O)CCOc1cc(C)c(-c2cccc(COc3ccc4c(c3)OC[C@H]4CC(=O)O)c2)c(C)c1 [Example 11, [(3S)-6-({4′-[2-(ethylsulfonyl)ethoxy]-2′,6′-dimethylbiphenyl-3-yl}methoxy)-2,3-dihydro-1-benzofuran-3-yl]acetic acid] | –
– | Cc1cc(OCCCS(C)(=O)=O)cc(C)c1-c1cccc(COc2ccc3c(c2)OC[C@H]3CC(=O)O)c1 [Example 20, [(3S)-6-({2′,6′-dimethyl-4′-[3-(methylsulfonyl)propoxy]biphenyl-3-yl}methoxy)-2,3-dihydro-1-benzofuran-3-yl]acetic acid 0.5 hydrate] | Relative activity value (each compound at 1 μM, relative to activity of 10 μM γ-linolenic acid = 100%, FLIPR for Examples 2, 6, 8, 10, 11, 13, Cell Lux for Examples 19-34, hydrate): 118%
107 | Cc1cc(OC2CCS(=O)(=O)CC2)cc(C)c1-c1cccc(COc2ccc3c(c2)OC[C@H]3CC(=O)O)c1 [Example 2, [(3S)-6-({4′-[(1,1-dioxidotetrahydro-2H-thiopyran-4-yl)oxy]-2′,6′-dimethylbiphenyl-3-yl}methoxy)-2,3-dihydro-1-benzofuran-3-yl]acetic acid] | –
101 | CCc1cc(OCCCS(C)(=O)=O)cc(CC)c1-c1cccc(COc2ccc3c(c2)OC[C@H]3CC(=O)O)c1 [Example 26, [(3S)-6-({2′,6′-diethyl-4′-[3-(methylsulfonyl)propoxy]biphenyl-3-yl}methoxy)-2,3-dihydro-1-benzofuran-3-yl]acetic acid] | –
96 | Cc1c(Cl)c(OCCCS(C)(=O)=O)c(Cl)c(C)c1-c1cccc(COc2ccc3c(c2)OC[C@H]3CC(=O)O)c1 [Example 24, [(3S)-6-({3′,5′-dichloro-2′,6′-dimethyl-4′-[3-(methylsulfonyl)propoxy]biphenyl-3-yl}methoxy)-2,3-dihydro-1-benzofuran-3-yl]acetic acid] | –
102 | Cc1cc(OCC2(O)CCS(=O)(=O)CC2)cc(C)c1-c1cccc(COc2ccc3c(c2)OC[C@H]3CC(=O)O)c1 [Example 6, [(3S)-6-({4′-[(4-hydroxy-1,1-dioxidotetrahydro-2H-thiopyran-4-yl)methoxy]-2′,6′-dimethylbiphenyl-3-yl}methoxy)-2,3-dihydro-1-benzofuran-3-yl]acetic acid] | –
112 | Cc1c(C)c(-c2cccc(COc3ccc4c(c3)OC[C@H]4CC(=O)O)c2)c(C)c(C)c1OCCCS(C)(=O)=O [Example 8, [(3S)-6-({2′,3′,5′,6′-tetrameramethyl-4′-[3-(methylsulfonyl)propoxy]biphenyl-3-yl}methoxy)-2,3-dihydro-1-benzofuran-3-yl]acetic acid] | –
104 | Cc1cc(OCCCS(C)(=O)=O)cc(C)c1-c1cc(COc2ccc3c(c2)OC[C@H]3CC(=O)O)ccc1COc1ccccc1 [Example 32, [(3S)-6-({2′,6′-dimethyl-4′-[3-(methylsulfonyl)propoxy]-6-(phenoxymethyl)biphenyl-3-yl}methoxy)-2,3-dihydro-1-benzofuran-3-yl]acetic acid] | –
125 | Cc1cc(OCCCS(C)(=O)=O)c(F)c(C)c1-c1cccc(COc2ccc3c(c2)OC[C@H]3CC(=O)O)c1 [Example 13, [(3S)-6-({3′-fluoro-2′,6′-dimethyl-4′-[3-(methylsulfonyl)propoxy]biphenyl-3-yl}methoxy)-2,3-dihydro-1-benzofuran-3-yl]acetic acid] | –
– | Cc1cc(OCCCS(C)(=O)=O)cc(C)c1-c1cccc(COc2ccc3c(c2)OC[C@H]3CC(=O)O)c1 [Example 10, [(3S)-6-({2′,6′-dimethyl-4′-[3-(methylsulfonyl)propoxy]biphenyl-3-yl}methoxy)-2,3-dihydro-1-benzofuran-3-yl]acetic acid] | Relative activity value [1]: 114%
92 | CCc1c(Cl)c(OCCCS(C)(=O)=O)c(Cl)c(CC)c1-c1cccc(COc2ccc3c(c2)OC[C@H]3CC(=O)O)c1 [Example 28, [(3S)-6-({3′,5′-dichloro-2′,6′-diethyl-4′-[3-(methylsulfonyl)propoxy]biphenyl-3-yl}methoxy)-2,3-dihydro-1-benzofuran-3-yl]acetic acid] | –
118 | Cc1cc(OCCCS(C)(=O)=O)cc(CO)c1-c1cccc(COc2ccc3c(c2)OC[C@H]3CC(=O)O)c1 [Example 19, [(3S)-6-({2′-(hydroxymethyl)-6′-methyl-4′-[3-(methylsulfonyl)propoxy]biphenyl-3-yl}methoxy)-2,3-dihydro-1-benzofuran-3-yl]acetic acid] | –
– | CCCCC/C=C\C/C=C\C/C=C\CCCCC(=O)O [γ-linoleic acid, γ-linolenic acid, reference compound] | Relative activity value (reference agonist at 10 μM, its activity set as 100%): 100%
108 | Cc1cc(OCCCS(C)(=O)=O)cc(C)c1-c1cc(COc2ccc3c(c2)OC[C@H]3CC(=O)O)ccc1Oc1ccccc1 [Example 30, [(3S)-6-({2′,6′-dimethyl-4′-[3-(methylsulfonyl)propoxy]-6-phenoxybiphenyl-3-yl}methoxy)-2,3-dihydro-1-benzofuran-3-yl]acetic acid 0.5 calcium salt] | –
121 | Cc1cc(OCCCS(C)(=O)=O)c(Cl)c(C)c1-c1cccc(COc2ccc3c(c2)OC[C@H]3CC(=O)O)c1 [Example 22, [(3S)-6-({3′-chloro-2′,6′-dimethyl-4′-[3-(methylsulfonyl)propoxy]biphenyl-3-yl}methoxy)-2,3-dihydro-1-benzofuran-3-yl]acetic acid] | –
119 | Cc1cc(OCCCS(C)(=O)=O)cc(C)c1-c1cc(COc2ccc3c(c2)OC[C@H]3CC(=O)O)c(F)cc1OCc1ccccc1 [Example 34, [(3S)-6-({6-(benzyloxy)-4-fluoro-2′,6′-dimethyl-4′-[3-(methylsulfonyl)propoxy]biphenyl-3-yl}methoxy)-2,3-dihydro-1-benzofuran-3-yl]acetic acid] | –

Source: patent US8598226B2, “Fused cyclic compounds” (Takeda Pharmaceutical Company Limited, priority 2006, dated 2013)
